Source: patent US20250281679A1, “BIOMIMETIC COATING FOR ENDOVASCULAR STENT” (INSERM (Institut National de la Santé et de la Recherche …, priority 2021, published 2025)
Bridge positions count the residues as written; N and C are the ends. Square brackets hold non-standard residues; d marks the D form. Primed or numbered codes have the meaning given here. Ends that are not written are not given here. * marks the point of attachment. Lys(N3) = [N-]=[N+]=NCCCC[C@H](N)C(=O)O; Ttds = NCCCOCCOCCOCCCNC(=O)CCC(=O)*; hCys = N[C@@H](CCS)C(=O)O; PEG4′ = not defined here

Legend:
[1] = tested on: Human aortic endothelial cells; assay: Human aortic endothelial cells grown 48 h on bare or peptide-coated nitinol disks; F-actin and CD31 fluorescence image analysis; assay type: cell-based; conditions: for CD31/Actin score: Example 2, FIG. 25, compared to bare metal disks or disks coated with PDA alone; for F-actin expression (cellular stress), Integrated Density / CD31 expression, Integrated Density: HAEC 48 h on coated nitinol disks; for F-actin expression (cellular stress), Integrated Density: phalloidin staining, compared to bare metal, FIGS. 2, 3, 5; for CD31 expression, Integrated Density: anti-CD31 domain 1 antibody, compared to other modified disks and bare controls, FIGS. 2, 4, 5; for ratio between CD31 and F-actin expression: compared to bare metal and disks coated with PDA only, FIG. 6
Procedure: Nitinol disks are left untouched (bare metal) or coated with a domain 1, domain 2 or domain 1 and 2 CD31 analog peptide. The tested peptide is grafted to the nitinol disk following a polydopamine, DBCO-PEG4-amine and azide CD31 derivative peptide using a sequential dip-coating layering procedure. After this step, all the disks are incubated with Human aortic endothelial cells for 48h. Disks are then rinsed and the cells are fixed in a formalin solution before staining. The staining is fulfilled using phalloidin coupled to AlexaFluor®488 dye (green fluorescence for Actin), DAPI is used for DNA staining and a domain 1 CD31 antibody coupled to APC is used for external Domain 1 staining. The cell adhesion and Actin/CD31 expression was evaluated by image analysis of the surface after staining.
In particular, as per FIG. 2 the bare or coated nitinol disks were placed at the bottom of culture wells. Primary Human Aortic Endothelial Cells (HAEC) were allowed to grow on the disks for a period of 48 h. The disks were thereafter rinsed with phosphate buffered saline, fixed in formalin, and processed for fluorescence microscopy. Disk-adherent cells were immersed in a solution comprising Hoechst 33342 (1 μg/ml, to stain the nuclei), phalloidin coupled to AlexaFluor®488 dye (0.5 μM, to stain F-actin fibers) and a monoclonal antibody directed against CD31 domain 1, coupled to allophycocyanin (to detect the presence and localization of intact CD31 at the cell surface) for 1 hour at 37° C., washed and mounted face down on glass bottom imaging chambers for imaging with an inverted fluorescence microscope.
Surface type is indicated on the Y axis, data are expressed as average±SD (N=6/surface type). Each dot corresponds to a specific surface modification. The F-actin expression relates the cellular stress of the cell in presence of the exogenous material.
In FIG. 4 the surface type is indicated on the Y axis. Each dot corresponds to a specific surface modification. Data are expressed as “Integrated Density” average±SD (N=6/surface type). CD31 expression relates the capacity of endothelial cells to adopt a physiologic phenotype while growing on a given substrate. An important variability is observed in terms of CD31 expression by HAEC according to the surface modification of the nitinol disks.
The effect of different peptides, belonging to the different groups, were tested in batches following the same protocol as in FIG. 6. Different peptides from each group were tested in batches and the effect of individual peptides was repeatedly assessed in separate experiments. Data from all experiments were obtained by computer-assisted analysis of images of the disk side covered with endothelial cells, captured in the blue, green and red channel of an inverted fluorescence microscope. The functional score of the peptides belonging to the different groups was calculated by multiplying the number of cells (as detected by the number of blue, Dapi+ nuclei) for the integrated density of CD31 expression (red signal provided by the binding of a mouse anti-human CD31 monoclonal antibody, clone 9G11, conjugated allophycocyanin) and their product being divided for the integrated density of the F-actin polymerization (Phalloidin coupled to a green fluorochrome).
The same protocol as in Example 1 was followed, using peptides according to the invention (SP547, SP548 SP745, SP1374, SP1072, SP1070, SP1071, SP1379 and SP1383) as defined above and the prior art peptide P8RI of sequence KWPALFVR (SEQ ID NO: 52).
The “CD31/Actin” score, resulting from the integrated density of CD31 immunostaining signal divided by the signal of phalloidin, which binds to the polymerized F-actin of the cytoskeleton, has been used to identify the physiological/non-stressed character of the arterial endothelial cells growing onto the surface of experimental disks placed at the bottom of culture wells. […]

endothelial cells = conditions: immobilized peptide, cited from earlier work
[2] = immobilized peptide, in vivo; cited from earlier work
CD31 = conditions: soluble peptide; cited from earlier work

In the case of RDQNFVILEFP-PEG4-K(N3)-NH2 [SP1070], the CD31/Actin score [1] was “significantly higher” and the “F-actin expression (cellular stress), Integrated Density” value [1] was “does not show an influence on the cellular stress”.
For “[^#CH2CONH2GTYKSTVIVNNKEKTTAEYQ-(Ttds)4-K(N3)-NH2]-[QHQMLFYhC^#DDVLFYNISSMK-CONH2] (chain 1 GTYKSTVIVNNKEKTTAEYQ-{Ttds-Ttds-Ttds-Ttds-Lys(N3)-NH2}; chain 2 QHQMLFY[hCys]DDVLFYNISSMK-NH2; not fully specified (N-terminus); also: thioether at chain B 8 to a chain's N-terminus) [SP1379]”, the CD31/Actin score [1] was “significantly higher”.
For “SHQMLFYKDDVLFYNISSS-GGSGGSGG-K(N3)-CONH2 (SHQMLFYKDDVLFYNISSSGGSGGSGG[Lys(N3)]-NH2; N-terminus assumed; SMILES CC[C@H](C)[C@H](NC(=O)[C@H](CC(N)=O)NC(=O)[C@H](Cc1ccc(O)cc1)NC(=O)[C@H](Cc1ccccc1)NC(=O)[C@H](CC(C)C)NC(=O)[C@@H](NC(=O)[C@H](CC(=O)O)NC(=O)[C@H](CC(=O)O)NC(=O)[C@H](CCCCN)NC(=O)[C@H](Cc1ccc(O)cc1)NC(=O)[C@H](Cc1ccccc1)NC(=O)[C@H](CC(C)C)NC(=O)[C@H](CCSC)NC(=O)[C@H](CCC(N)=O)NC(=O)[C@H](Cc1c[nH]cn1)NC(=O)[C@@H](N)CO)C(C)C)C(=O)N[C@@H](CO)C(=O)N[C@@H](CO)C(=O)N[C@@H](CO)C(=O)NCC(=O)NCC(=O)N[C@@H](CO)C(=O)NCC(=O)NCC(=O)N[C@@H](CO)C(=O)NCC(=O)NCC(=O)N[C@@H](CCCCN=[N+]=[N-])C(N)=O) [SP745]”, the CD31/Actin score [1] was “significantly higher”.
In the case of “Ac-YKDDVLFYNISSMKST-GGSGGSGG-K(N3)-NH2 (Ac-YKDDVLFYNISSMKSTGGSGGSGG[Lys(N3)]-NH2; SMILES CC[C@H](C)[C@H](NC(=O)[C@H](CC(N)=O)NC(=O)[C@H](Cc1ccc(O)cc1)NC(=O)[C@H](Cc1ccccc1)NC(=O)[C@H](CC(C)C)NC(=O)[C@@H](NC(=O)[C@H](CC(=O)O)NC(=O)[C@H](CC(=O)O)NC(=O)[C@H](CCCCN)NC(=O)[C@H](Cc1ccc(O)cc1)NC(C)=O)C(C)C)C(=O)N[C@@H](CO)C(=O)N[C@@H](CO)C(=O)N[C@@H](CCSC)C(=O)N[C@@H](CCCCN)C(=O)N[C@@H](CO)C(=O)N[C@H](C(=O)NCC(=O)NCC(=O)N[C@@H](CO)C(=O)NCC(=O)NCC(=O)N[C@@H](CO)C(=O)NCC(=O)NCC(=O)N[C@@H](CCCCN=[N+]=[N-])C(N)=O)[C@@H](C)O) [SP548]”, the CD31/Actin score [1] was “equivalent to those of sections coated by other peptides according to the invention”.
With “Ac-K(N3)-GGSGGSGG-YKDDVLFYNISSMKST-NH2 (Ac-[Lys(N3)]GGSGGSGGYKDDVLFYNISSMKST-NH2; SMILES CC[C@H](C)[C@H](NC(=O)[C@H](CC(N)=O)NC(=O)[C@H](Cc1ccc(O)cc1)NC(=O)[C@H](Cc1ccccc1)NC(=O)[C@H](CC(C)C)NC(=O)[C@@H](NC(=O)[C@H](CC(=O)O)NC(=O)[C@H](CC(=O)O)NC(=O)[C@H](CCCCN)NC(=O)[C@H](Cc1ccc(O)cc1)NC(=O)CNC(=O)CNC(=O)[C@H](CO)NC(=O)CNC(=O)CNC(=O)[C@H](CO)NC(=O)CNC(=O)CNC(=O)[C@H](CCCCN=[N+]=[N-])NC(C)=O)C(C)C)C(=O)N[C@@H](CO)C(=O)N[C@@H](CO)C(=O)N[C@@H](CCSC)C(=O)N[C@@H](CCCCN)C(=O)N[C@@H](CO)C(=O)N[C@H](C(N)=O)[C@@H](C)O) [SP547]” the CD31/Actin score [1] was “equivalent to those of sections coated by other peptides according to the invention”.
For “Ac-K(N3)-(Ttds)4-PRhCTLDKKEAIQGGIVRVNhCSVPEEK-CONH2 ({Ac-Lys(N3)-Ttds-Ttds-Ttds-Ttds}-PR[hCys]TLDKKEAIQGGIVRVN[hCys]SVPEEK-NH2; disulfide 3-20) [SP1380]”, the “CD31 expression, Integrated Density” value [1] was “evident positive effect in terms of CD31 expression” and the “ratio between CD31 and F-actin expression” value [1] was “higher CD31/actin ratio”.
For “[Ac-K(N3)-(Ttds)4-PRVTLDKKEAIQGGIVRVNSSVPEEK-Ttds-K^#(CH2CO)-CONH2]-[QHQMLFYhC^#DDVLFYNISSMK-CONH2] (chain 1 {Ac-Lys(N3)-Ttds-Ttds-Ttds-Ttds}-PRVTLDKKEAIQGGIVRVNSSVPEEK-{Ttds-K(CH2CO)-NH2}; chain 2 QHQMLFY[hCys]DDVLFYNISSMK-NH2; also: thioether at chain B 8 to a chain's C-terminus) [SP1383]”, the CD31/Actin score [1] was “significantly higher”.
In the case of “KWPALFVR [P8RI, prior art CD31-mimetic octa-peptide]”, the “adhesion of endothelial cells” value (endothelial cells; in vitro) is listed as “increases the adhesion of endothelial cells in vitro”, the blood element reaction (endothelial cells) is listed as “reduces the blood element reaction” and the “integration of endovascular devices” value [2] is listed as “enhances the integration of endovascular devices in vivo”. The “action on CD31” value (CD31) was “acts like a CD31 agonist”.
In the case of “hCHQMLFYKDDVLFYNISShCK-Ttds-Ttds-Ttds-Ttds-K(N3)-CONH2 ([hCys]HQMLFYKDDVLFYNISS[hCys]K-{Ttds-Ttds-Ttds-Ttds-Lys(N3)-NH2}; cysteine pairing not given here) [SP1374]”, the CD31/Actin score [1] was “significantly higher”, the “CD31 expression, Integrated Density” value ([1]; listed as 1374) was “evident positive effect in terms of CD31 expression” and the “CD31 expression, Integrated Density” value ([1]; listed as SP 1374) was “consistent functional endothelial phenotype (high CD31 expression)”. The “F-actin expression (cellular stress), Integrated Density” value [1] was “low cellular stress (low actin expression)” and the “ratio between CD31 and F-actin expression” value [1] was “higher CD31/actin ratio”.
For “Ac-K(N3)-PEG4-PRVTLDKKEAIQGGIVRVNSSVPEEK-CONH2 (Ac-[Lys(N3)][PEG4′]PRVTLDKKEAIQGGIVRVNSSVPEEK-NH2) [SP1071]”, the CD31/Actin score [1] was “significantly higher”.
